# Patent US10813919B2, “Use of histone deacetylase inhibitors for enhancing immunotherapies” (Indiana University Research and Technology Corporation, priority 2016, dated 2020)
# Columns and labels:
# [1] = tested on: RENCA-Luc murine renal cell carcinoma; assay: In vivo tumor growth (RENCA), orthotopic RENCA-Luc syngeneic model; parameters: species or system Balb/c mice; details: vs control; entinostat 5 mg/kg oral 5 days/week, anti-PD-1 10 mg/kg I.P.; end-point tumor weight
# Experimental: Cell lines: The RENCA-Luc murine renal cell carcinoma cell line, purchased from American Type Culture Collection (National Cancer Institute), was stably transfected with a luciferase reporter in the Pili laboratory. Cells were cultured using RPMI 1640 (Corning) with 10% fetal bovine serum (Corning) and 1% Pen/Strep (Life Technologies). Cells were incubated in an incubator maintained at 37° C. and 5% CO2. 75-80% confluent cells were harvested for orthotopic injection into the kidney of Balb/c mice using 0.25% Trypsin (Corning) and suspended in a 1:1 ratio of MATRIGEL® (Corning) and DPBS (Gibco).
# In vivo tumor growth (RENCA): All procedures were performed and approved in strict accordance with the Institutional Animal Care and Use Committee (IACUC) at Roswell Park Cancer Institute, Indiana University School of Medicine, and with the NIH Guide for the Care and Use of Laboratory Animal guidelines.
# Female five- to six-week old Balb/c mice (Charles Rivers) were maintained in a temperature controlled room with a 12/12 hour light/dark schedule and food provided ad libitum. 70-80% confluent RENCA-Luc cells were harvested using 0.25% Trypsin (Corning) and suspended in a 1:1 ratio of matrigel (Corning) and HBSS (Gibco), 10 μl containing 1×10^4 cells was injected under the renal capsule. […]
# [2] = tested on: MDSC-like cell line J774M; assay: T cell suppression assay with entinostat treated J774M cells; assay type: cell-based; details: J774M treated 24 hours in vitro, co-culture with pre-activated CD8+ T cells 68-72 hours
# Experimental: The J774M cell line was cultured with DMEM (Corning) media with 10% fetal bovine serum (Corning) and 1% Pen/Strep (Life Technologies). Cells were incubated in 37° C. and 5% CO2. […] T cell isolation & activation: Whole spleens were harvested from naïve mice, mashed and passed through a 70 μm strainer. Cells were then washed, lysed with RBC lysis buffer (Affymetrix 00-4333-57), and cultured in RPMI medium with 10% FBS, Pen (100 units/ml)-Strep ([…]), 1 mM sodium pyruvate, […] non-essential amino-acids, 2 mM L-Glutamine, 55 μM BME, with anti-CD3 (eBioscience 16-0031-85) and anti-CD28 (eBioscience 5012503) for approximately 24 hours. CD8^+ T cells were then isolated using a CD8a^+ T cell isolation kit from Miltenyi Biotec (130-104-075), stained with CFSE (NC9759757), according to the manufacturer's protocol, and co-cultured with MDSCs as described below. T cell suppression assay: T cells (1×10^5; isolated with a CD8a^+ T cell isolation kit; Miltenyi Biotec) were cultured in plates with varying numbers of either G-MDSCs or M-MDSCs isolated from RENCA tumors for 16-18 hours. T cells isolated in the listed method were co-cultured with entinostat treated J774M cells for 68-72 hours. Cells were then harvested, stained and analyzed via FACS analysis.
# [3] = tested on: G-MDSCs or M-MDSCs isolated from RENCA tumors; assay: T cell suppression assay, ex vivo, MDSCs isolated from RENCA tumors of treated mice; assay type: cell-based, mouse
# Experimental: T cell isolation & activation: Whole spleens were harvested from naïve mice, mashed and passed through a 70 μm strainer. Cells were then washed, lysed with RBC lysis buffer (Affymetrix 00-4333-57), and cultured in RPMI medium with 10% FBS, Pen (100 units/ml)-Strep ([…]), 1 mM sodium pyruvate, […] non-essential amino-acids, 2 mM L-Glutamine, 55 μM BME, with anti-CD3 (eBioscience 16-0031-85) and anti-CD28 (eBioscience 5012503) for approximately 24 hours. CD8^+ T cells were then isolated using a CD8a^+ T cell isolation kit from Miltenyi Biotec (130-104-075), stained with CFSE (NC9759757), according to the manufacturer's protocol, and co-cultured with MDSCs as described below. MDSC Isolation: MDSCs were isolated from RENCA tumors of each group using Miltenyi Biotec's Myeloid Derived Suppressor Cell Isolation Kit (130-094-538) and co-cultured with isolated CD8^+ T cells in serially diluted concentrations. T cell suppression assay: T cells (1×10^5; isolated with a CD8a^+ T cell isolation kit; Miltenyi Biotec) were cultured in plates with varying numbers of either G-MDSCs or M-MDSCs isolated from RENCA tumors for 16-18 hours. T cells isolated in the listed method were co-cultured with entinostat treated J774M cells for 68-72 hours. Cells were then harvested, stained and analyzed via FACS analysis. Cell staining and flow cytometry: Splenocytes, tumor cell suspensions, and peripheral blood cells were washed, blocked with Fc Block (anti-mouse CD16/32 mAb; BD Biosciences) at 4° C. for 15 minutes, and stained with fluorescence conjugated antibodies against surface markers: CD45 (clone 30-F11), CD11b (clone M1/70), Gr1 (clone RB6-8C5), Ly6C (clone AL-21), Ly6G (clone 1A8), F480 (clone BM8), CD8a (clone 53-6.7), CD4 (clone RM4-5) antibodies purchased from BioLegend, eBioscience or BD Biosciences. Cells were then fixed in Fixation/Permeabilization buffer (eBioscience) and stained with antibodies against intracellular proteins, including FoxP3 (NRRF-30) and Granzyme B (clone GB11). The antibodies were purchased from BD Biosciences, Biolegend, and R&D Systems and used in staining. […]
# chemokines and cytokines = assay: Proteome Profiler Mouse XL Cytokine array (Ary028) of tumor lysates and serum; assay type: in vivo
# Experimental: Proteome Profile: Tumor tissue was homogenized in PBS containing protease inhibitors. Following homogenization, Triton X-100 was added to a final concentration of 1%, frozen at −80° C., thawed, centrifuged as 10,000 g for 5 minutes, quantified and assayed according to the manufacturer's protocol. Blood samples were collected from mice in each cohort, allowed to clot for 2 hours at room temperature, centrifuged at 2000 g for 15 minutes. Serum samples were frozen at −80° C. until time of analysis at which time they were run according to manufacturer's protocol. All samples were processed and run on R&D Systems mouse XL cytokine array kit (Ary028).
# J774M cells = assay: J774M cell proliferation or viability; assay type: cell-based; details: 0.01-5 μM, up to 48 hours
# Experimental: The J774M cell line was cultured with DMEM (Corning) media with 10% fetal bovine serum (Corning) and 1% Pen/Strep (Life Technologies). Cells were incubated in 37° C. and 5% CO2.
# arginase-1 (Arg1) = assay: Quantitative real-time PCR of Arginase 1 in J774M cells; assay type: cell-based; details: 0.5 μM, 1 μM, 2 μM vs untreated control (p=0.003; 0.0041; 0.0043)
# Experimental: Quantitative real-time PCR: mRNA was extracted from J774M cells that were treated±entinostat using standard Trizol protocols. RNA concentration and purity were determined through measurement of A260/280 ratios with a Synergy Hi Multi-Mode reader. cDNA was prepared using the iScript kit (Bio-Rad) and qPCR was performed using an Applied Biosystems 7900HT fast real time PCR system. Sequence Detection Systems software v2.3 was used to identify the cycle threshold (Ct) values and to generate gene expression curves. Data were normalized to Gapdh expression and fold change was calculated. The primers used for target genes were: Gapdh_foward 5′-[…]-3′, Gapdh_reverse 5′-[…]-3′ (SEQ ID NO:1), Arginase 1_forward 5′-[…]-3′ (SEQ ID NO:2), and Arginase 1_reverse 5′-[…]-3′ (SEQ ID NO:3).
# [4] = tested on: Myeloid derived suppressor cells (G-MDSCs, M-MDSCs); assay: FACS analysis of G-MDSC and M-MDSC in tumor and blood; assay type: in vivo, Balb/c mice
# Experimental: (§1) Tumor suspension and spleenocyte preparation: Live tumor sections were isolated from tumors, cut into small pieces, and digested with an enzyme cocktail solution from the mouse tumor dissociation kit (Miltenyi Biotec—130-096-730). Tumors were incubated with the enzyme cocktail for 30 minutes at 37° C. with agitation. The enzyme reaction was arrested using PBS, cells were spun at 300 g, 4° C. for 7 minutes, re-suspended in PBS and mashed through a 70 um cell strainer. Cells from these tumors were either used for flow cytometry analysis or further processed and used for functional analyses.
# (§2) Cell staining and flow cytometry: Splenocytes, tumor cell suspensions, and peripheral blood cells were washed, blocked with Fc Block (anti-mouse CD16/32 mAb; BD Biosciences) at 4° C. for 15 minutes, and stained with fluorescence conjugated antibodies against surface markers: CD45 (clone 30-F11), CD11b (clone M1/70), Gr1 (clone RB6-8C5), Ly6C (clone AL-21), Ly6G (clone 1A8), F480 (clone BM8), CD8a (clone 53-6.7), CD4 (clone RM4-5) antibodies purchased from BioLegend, eBioscience or BD Biosciences. Cells were then fixed in Fixation/Permeabilization buffer (eBioscience) and stained with antibodies against intracellular proteins, including FoxP3 (NRRF-30) and Granzyme B (clone GB11). The antibodies were purchased from BD Biosciences, Biolegend, and R&D Systems and used in staining. Stained cells and isotype-control-stained cells, were assayed on a LSR4 or Fortessa flow cytometer (BD Biosciences). Data analysis was performed using the FlowJo (FlowJo LLC) and/or ModFit LT 4.1 software.
# iNOS = assay: Fold change of iNOS in J774M cells; assay type: cell-based; details: J774M cells treated with entinostat
# [5] = tested on: T regulatory cells (CD4+FoxP3+); assay: FACS analysis of T regulatory cells in end-point blood and tumor samples; assay type: in vivo, Balb/c mice; details: blood
# Experimental: as §1
# as §2, with “Stained cells and isotype-control-stained cells, were assayed on a LSR4 or Fortessa flow cytometer (BD Biosciences). Data analysis was performed using the FlowJo (FlowJo LLC) and/or ModFit LT 4.1 software.” left out
# [6] = tested on: advanced renal cell carcinoma; details: advanced renal cell carcinoma patients, cited from earlier work
Compound,tumor growth inhibition [1] [%],CD8+ T cell proliferation in co-culture with treated J774M cells [2],"capacity of MDSCs (G-MDSC or M-MDSC) to inhibit CD8+ T cell proliferation ([3]; MDSC to T cell ratios 1:1, 0.5:1, 0.25:1, co-culture 16-18 hours, mice treated in vivo, p≤0.01)","CD8+ T cell proliferation in co-culture with MDSCs from treated mice ([3]; co-culture 16-18 hours, similar to control stimulated CD8+ T cells alone) [%]","increase in Granzyme B production by CD8+ T cells ([3]; compared to co-culture with MDSCs from untreated tumor-bearing mouse, p<0.01)","circulating pro-tumor associated chemokines and cytokines (chemokines and cytokines; serum vs control, adiponectin, angiopoietin-2, chitinase 3-like 1, CCL12, C5, c-reactive protein, IL-6, pentraxins 2/3, periostin, CCL17, M-CSF, GM-CSF, MMP-2, MMP-9, CCL2, osteoprotegerin, VCAM)","MDSC associated trafficking/accumulation and expansion/activation cytokines in the TME (chemokines and cytokines; tumor lysates vs control, CCL2, VCAM-1/CD106, Angiopoietin-2, G-CSF, GM-CSF, IL-1β, IL-10)","anti-tumor chemokines and cytokines in the TME (chemokines and cytokines; tumor lysates vs control, CXCL10/IP-10, E-selectin, IL-1ra, IL-4, IL-12p40)","upregulation of anti-tumor cytokines/chemokines (chemokines and cytokines; vs control cohort, CXCL9, CXCL10, IL-4, IL-13, E-selectin, IL-12p40)",J774M cell proliferation or viability (J774M cells),arginase-1 (Arg1) expression (arginase-1 (Arg1)),"tumor infiltrating G-MDSC population ([4]; TME, vs control)","tumor infiltrating M-MDSC population ([4]; TME, vs control)",circulating G-MDSCs ([4]; blood),circulating M-MDSCs ([4]; blood),iNOS fold change (iNOS),FoxP3 protein levels (MFI) in circulating CD4+FoxP3+ cells [5],treatment related adverse events [6],"increase in overall survival ([6]; compared to standard of care, everolimus) [%]"
"Nc1ccccc1NC(=O)c1ccc(CNC(=O)OCc2cccnc2)cc1 [entinostat, Pyridin-3-ylmethyl N-[[4-[(2-aminophenyl)carbamoyl]phenyl]methyl]carbamate]",52.6,significant increase,significant reduction,~90,approximately 40%,Significant decreases,significant reduction,significant upregulation,note observed,no significant alteration,significant inhibition,slight increase,slight increase,slight decreases,significant increases,inconclusive results,significant decrease,,
"nivolumab: a PD-1 inhibitor, immune checkpoint inhibitor approved for advanced renal cell carcinoma",,,,,,,,,,,,,,,,,,limited treatment related adverse events,78
